The target in one assay is Jarid1A (Homo sapiens (Human), UniProt P29375). Briefly: Jarid1A in vitro enzyme inhibition assay (TR-FRET). The assay is classed as biochemical. In general terms: Time-resolved FRET reads energy transfer from a long-lived donor to a nearby acceptor.
The next assay has as its target Jarid1B (Homo sapiens (Human), UniProt Q9UGL1). The experiment in a line: Jarid1B in vitro enzyme inhibition assay (TR-FRET). The assay is classed as biochemical.
Another assay concerns KDM5A/B. Briefly: In vitro cell-based assay: tri-methyl H3K4 immuno-blotting in ZR-75-1 breast cancer cells. As for the experimental part:
This quantitative immuno-blotting assay measures the amount tri-methylated histone H3 at amino acid Lysine number 4, a specific substrate […] of the direct enzymatic activity of the histone demethylases KDM5A and KDM5B from extracts of the ZR-75-1 breast cancer cell line.
This assay is a fluorometric immunoassay for the quantification of tri-methyl H3K4 extracted from cells treated with test compound and is used as a measure of the cellular inhibition of KDM5A/B.
Extracts were prepared containing all of the cellular histone material using detergent based lysis and sonication methods. These lysates were subsequently normalized for total protein content using a colorimetric bicinchonic acid assay (MicroBCA Pierce/Thermo Scientific). Normalized cell extracts were then subjected to typical immuno-blotting procedures using NuPage reagents (Life Technologies). Electrophoretically separated histones were then transferred and immobilized using polyvinylidene difluoride membrane (Immobilon-FL Millipore). The amount of tri-methylated lysine 4 of histone H3 was detected using an antibody specific to the tri-methylated state (Cell Signaling Technologies) and quantified on an infrared imager using a densitometry software package (Odyssey CLx, Image Studio, Li-Cor). This background subtracted densitometry value was reported as a ration of the GAPDH amount for that sample and then calculated as a percent of the DMSO treated sample. The software package XL-fit (IDBS) was then used to calculate a relative IC50 value for the dilution series of a given test compound according to the equation: fit=(D+((Vmax*(x^n))/((x^n)+(Km^n)))).

[1] abbreviates: 72 hours, read-out: Cellular IC50.
[2] abbreviates: read-out: Cellular IC50, 72 hours.

The text below walks through data of patent US9617242B2, “Histone demethylase inhibitors” (priority 2012, dated 2017).

A word on the IC50: it is the concentration that gives 50% inhibition.

The structures appear in SMILES notation. Where a name gives a salt, the structure may show the parent alone. Read-outs that look alike come from different tables or passages of the source.

Sequence of Jarid1A (P29375 1-1090): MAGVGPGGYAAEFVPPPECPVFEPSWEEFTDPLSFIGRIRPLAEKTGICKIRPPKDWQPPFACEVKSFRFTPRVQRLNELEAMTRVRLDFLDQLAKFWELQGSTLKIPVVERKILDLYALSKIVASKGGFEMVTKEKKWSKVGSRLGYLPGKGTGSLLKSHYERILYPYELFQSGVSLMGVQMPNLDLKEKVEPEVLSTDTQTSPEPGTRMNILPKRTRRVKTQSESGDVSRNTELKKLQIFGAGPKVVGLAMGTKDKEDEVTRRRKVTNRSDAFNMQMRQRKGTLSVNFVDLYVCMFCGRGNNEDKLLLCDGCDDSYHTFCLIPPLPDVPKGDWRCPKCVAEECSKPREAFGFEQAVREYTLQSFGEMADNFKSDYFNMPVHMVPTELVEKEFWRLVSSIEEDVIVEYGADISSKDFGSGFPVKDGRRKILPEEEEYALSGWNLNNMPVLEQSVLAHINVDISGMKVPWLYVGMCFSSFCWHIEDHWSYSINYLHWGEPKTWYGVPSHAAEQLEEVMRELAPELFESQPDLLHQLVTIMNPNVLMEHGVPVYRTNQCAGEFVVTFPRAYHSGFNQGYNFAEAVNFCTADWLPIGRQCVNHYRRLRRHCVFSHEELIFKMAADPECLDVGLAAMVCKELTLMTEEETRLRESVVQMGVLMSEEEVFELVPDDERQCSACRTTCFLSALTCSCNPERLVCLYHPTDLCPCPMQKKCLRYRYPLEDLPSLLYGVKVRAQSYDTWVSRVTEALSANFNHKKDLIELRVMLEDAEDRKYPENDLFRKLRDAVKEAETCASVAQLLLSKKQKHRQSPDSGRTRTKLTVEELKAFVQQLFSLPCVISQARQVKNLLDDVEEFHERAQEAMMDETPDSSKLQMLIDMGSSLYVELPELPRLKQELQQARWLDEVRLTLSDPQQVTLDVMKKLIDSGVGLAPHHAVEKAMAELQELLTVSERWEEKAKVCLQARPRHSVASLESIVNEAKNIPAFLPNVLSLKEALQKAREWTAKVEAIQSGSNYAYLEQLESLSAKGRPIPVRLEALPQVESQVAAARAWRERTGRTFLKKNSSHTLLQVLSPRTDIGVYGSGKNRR
Sequence of Jarid1B (Q9UGL1 2-751): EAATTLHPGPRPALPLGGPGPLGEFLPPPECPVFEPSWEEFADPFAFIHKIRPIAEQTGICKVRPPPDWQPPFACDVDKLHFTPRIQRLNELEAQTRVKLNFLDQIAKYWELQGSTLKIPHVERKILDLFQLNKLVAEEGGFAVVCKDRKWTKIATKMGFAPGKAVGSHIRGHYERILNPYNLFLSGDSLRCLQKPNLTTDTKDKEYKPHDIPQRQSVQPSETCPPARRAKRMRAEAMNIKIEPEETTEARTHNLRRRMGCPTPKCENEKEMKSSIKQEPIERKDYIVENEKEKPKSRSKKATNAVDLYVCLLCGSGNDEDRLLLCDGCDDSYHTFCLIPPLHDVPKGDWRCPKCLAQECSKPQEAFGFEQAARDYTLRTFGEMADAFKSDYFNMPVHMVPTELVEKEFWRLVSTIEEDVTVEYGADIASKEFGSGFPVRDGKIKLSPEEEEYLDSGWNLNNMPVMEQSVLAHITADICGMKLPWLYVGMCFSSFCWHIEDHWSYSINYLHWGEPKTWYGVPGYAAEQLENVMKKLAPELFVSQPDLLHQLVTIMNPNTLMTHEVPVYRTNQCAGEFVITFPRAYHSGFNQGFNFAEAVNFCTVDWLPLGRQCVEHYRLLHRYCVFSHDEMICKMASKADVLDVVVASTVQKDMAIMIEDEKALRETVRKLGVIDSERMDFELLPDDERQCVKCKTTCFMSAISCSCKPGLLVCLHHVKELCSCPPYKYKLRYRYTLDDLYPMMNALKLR

In the case of `Cn1nc(Nc2cnccc2C(=O)O)c2cc(Cl)ccc21` [Example 4, 3-[(5-chloro-1-methyl-1H-indazol-3-yl)amino]pyridine-4-carboxylic acid], the IC50 was below 100 nM at Jarid1A, below 100 nM against Jarid1B and 100 to 1000 nM in the assay with KDM5A/B (setting [1]).

`Cc1ccc2c(Nc3cnccc3C(=O)O)nn(C)c2c1` [Example 5, 3-[(1,6-dimethyl-1H-indazol-3-yl)amino]pyridine-4-carboxylic acid]: the values for the IC50 on Jarid1A, at Jarid1B and with KDM5A/B (setting [1]) were below 100 nM, below 100 nM and 1000 to 10000 nM, respectively.

As for `Cn1nc(Nc2cnccc2C(=O)O)c2ccc(F)cc21` [Example 6, 3-[(6-fluoro-1-methyl-1H-indazol-3-yl)amino]pyridine-4-carboxylic acid], in the assay on KDM5A/B (setting [1]), the IC50 fell in the range of 1000 to 10000 nM.

Regarding `COc1ccc2c(Nc3cnccc3C(=O)O)nn(C)c2c1` [Example 8, 3-[(6-methoxy-1-methyl-1H-indazol-3-yl)amino]pyridine-4-carboxylic acid], the IC50 against Jarid1A is below 100 nM; against Jarid1B, below 100 nM; in the assay with KDM5A/B (setting [1]), 1000 to 10000 nM.

With `CCCn1nc(Nc2cnccc2C(=O)O)c2ccccc21` [Example 9, 3-[(1-propyl-1H-indazol-3-yl)amino]pyridine-4-carboxylic acid], the figures for the IC50 against Jarid1A, on Jarid1B and in the assay on KDM5A/B (setting [1]) were below 100 nM, below 100 nM and 100 to 1000 nM, respectively.

Turning to `COCCn1nc(Nc2cnccc2C(=O)O)c2ccccc21` [Example 10, 3-{[1-(2-methoxyethyl)-1H-indazol-3-yl]amino}pyridine-4-carboxylic acid], the IC50 is below 100 nM on Jarid1A, below 100 nM on Jarid1B and 1000 to 10000 nM in the assay on KDM5A/B (setting [1]).

Consider `Cc1ccc2c(c1)c(Nc1cnccc1C(=O)O)nn2C` [Example 12, 3-[(1,5-dimethyl-1H-indazol-3-yl)amino]pyridine-4-carboxylic acid], for which the IC50 in the assay on KDM5A/B (setting [1]) fell in the range of 100 to 1000 nM.

`CCCn1nc(Nc2cnccc2C(=O)O)c2cc(F)ccc21` [Example 15, 3-[(5-fluoro-1-propyl-1H-indazol-3-yl)amino]pyridine-4-carboxylic acid]: the IC50 against Jarid1A was below 100 nM; on Jarid1B, below 100 nM; in the assay with KDM5A/B (setting [1]) it was 1000 to 10000 nM.

Turning to `O=C(O)c1ccncc1Nc1nn(CC2CC2)c2ccc(F)cc12` [Example 16, 3-{[1-(cyclopropylmethyl)-5-fluoro-1H-indazol-3-yl]amino}pyridine-4-carboxylic acid], the IC50 against Jarid1A is below 100 nM; against Jarid1B, below 100 nM; with KDM5A/B (setting [1]), 1000 to 10000 nM.

For `CCCCCn1nc(Nc2cnccc2C(=O)O)c2cc(F)ccc21` [Example 18, 3-[(5-fluoro-1-pentyl-1H-indazol-3-yl)amino]pyridine-4-carboxylic acid], the results for the IC50 on Jarid1A, against Jarid1B and with KDM5A/B (setting [1]) were below 100 nM, below 100 nM and 1000 to 10000 nM, respectively.

Consider `O=C(O)c1ccncc1Nc1nn(CCc2ccccc2)c2ccc(F)cc12` [Example 19, 3-{[5-fluoro-1-(2-phenethyl)-1H-indazol-3-yl]amino}pyridine-4-carboxylic acid], for which the IC50 was below 100 nM against Jarid1A, below 100 nM against Jarid1B and above 10000 nM with KDM5A/B (setting [1]).

For the molecule `O=C(O)c1ccncc1Nc1nn(CC2CCCO2)c2ccc(F)cc12` (centres unmarked) [Example 21, 3-{[5-fluoro-1-(tetrahydrofuran-2-ylmethyl)-1H-indazol-3-yl]amino}pyridine-4-carboxylic acid], the IC50 is below 100 nM against Jarid1A, below 100 nM against Jarid1B and 1000 to 10000 nM in the assay with KDM5A/B (setting [1]).

With `O=C(O)c1ccncc1Nc1nn(CC(F)(F)F)c2ccc(F)cc12` [Example 23, 3-{[5-fluoro-1-(2,2,2-trifluoroethyl)-1H-indazol-3-yl]amino}pyridine-4-carboxylic acid], the IC50 at Jarid1A was below 100 nM; on Jarid1B, below 100 nM; with KDM5A/B (setting [1]), 1000 to 10000 nM.

`CC(C)Cn1nc(Nc2cnccc2C(=O)O)c2cc(F)ccc21` [Example 25, 3-{[5-fluoro-1-(2-methylpropyl)-1H-indazol-3-yl]amino}pyridine-4-carboxylic acid]: the IC50 on Jarid1A was below 100 nM; against Jarid1B, below 100 nM; in the assay on KDM5A/B (setting [1]), 1000 to 10000 nM.

As to `CCn1nc(Nc2cnccc2C(=O)O)c2cc(C)ccc21` [Example 36, 3-[(1-ethyl-5-methyl-1H-indazol-3-yl)amino]pyridine-4-carboxylic acid], the IC50 against Jarid1A and against Jarid1B was below 100 nM in each case.

On to `CCCn1nc(Nc2cnccc2C(=O)O)c2cc(C)ccc21` [Example 38, 3-[(5-methyl-1-propyl-1H-indazol-3-yl)amino]pyridine-4-carboxylic acid], for which the IC50 at Jarid1A and against Jarid1B was below 100 nM each time.

With `Cc1ccc2c(c1)c(Nc1cnccc1C(=O)O)nn2CCC(F)(F)F` [Example 39, 3-{[5-methyl-1-(3,3,3-trifluoropropyl)-1H-indazol-3-yl]amino}pyridine-4-carboxylic acid], the IC50 on Jarid1A and on Jarid1B was below 100 nM in each case.

On to `CNCCCCCn1nc(Nc2cnccc2C(=O)O)c2cc(F)ccc21` [Example 46, 3-({5-fluoro-1-[5-(methylamino)pentyl]-1H-indazol-3-yl}amino)pyridine-4-carboxylic acid, trifluoroacetic acid salt], for which the IC50 in the assay with KDM5A/B (setting [2]) was above 10000 nM.

Consider `CN(C)CC#CCn1nc(Nc2cnccc2C(=O)O)c2cc(F)ccc21` [Example 49, 3-({1-[4-(dimethylamino)but-2-yn-1-yl]-5-fluoro-1H-indazol-3-yl}amino)pyridine-4-carboxylic acid, trifluoroacetic acid salt], for which the IC50 in the assay with KDM5A/B (setting [2]) was above 10000 nM.

As for `CCCn1cc(Nc2cnccc2C(=O)O)c2cc(F)ccc21` [Example 57, 3-[(5-fluoro-1-propyl-1H-indol-3-yl)amino]pyridine-4-carboxylic acid], the IC50 on Jarid1A and at Jarid1B was below 100 nM each time.

In the case of `O=C(O)c1ccncc1Nc1nn([C@H]2CCNC2)c2ccc(F)cc12` [Example 60, 3-({5-fluoro-1-[(3S)-pyrrolidin-3-yl]-1H-indazol-3-yl}amino)pyridine-4-carboxylic acid], the IC50 in the assay on KDM5A/B (setting [1]) lay in the range of 1000 to 10000 nM.

Consider `O=C(O)c1ccncc1Nc1nn([C@@H]2CCNC2)c2ccc(F)cc12` [Example 61, 3-({5-fluoro-1-[(3R)-pyrrolidin-3-yl]-1H-indazol-3-yl}amino)pyridine-4-carboxylic], for which, in the assay with KDM5A/B (setting [1]), the IC50 lay within 1000 to 10000 nM.

Turning to `O=C(O)c1ccncc1Nc1nn(C2CCOCC2)c2ccc(F)cc12` [Example 62, 3-{[5-fluoro-1-(tetrahydro-2H-pyran-4-yl)-1H-indazol-3-yl]amino}pyridine-4-carboxylic acid], the IC50 against Jarid1A and against Jarid1B was below 100 nM throughout.

Take `O=C(O)c1ccncc1Nc1nn(C2CCCOC2)c2ccc(F)cc12` (centres unmarked) [Example 63, 3-{[5-fluoro-1-(tetrahydro-2H-pyran-3-yl)-1H-indazol-3-yl]amino}pyridine-4-carboxylic acid]: the IC50 against Jarid1A and at Jarid1B was below 100 nM throughout.

As to `O=C(O)c1ccncc1Nc1cn(C2CCOC2)c2ccc(F)cc12` (centres unmarked) [Example 68, 3-{[5-fluoro-1-(tetrahydrofuran-3-yl)-1H-indol-3-yl]amino}pyridine-4-carboxylic acid], the IC50 against Jarid1A and on Jarid1B was below 100 nM throughout.

For the molecule `N#CNC(=O)c1ccncc1Nc1nn([C@H]2CCOC2)c2ccc(F)cc12` [Example 70, N-cyano-3-({5-fluoro-1-[(3S)-tetrahydrofuran-3-yl]-1H-indazol-3-yl}amino)pyridine-4-carboxamide], the 50% inhibitory concentration (IC50) against Jarid1A and against Jarid1B was below 100 nM throughout.

For the molecule `N#CNC(=O)c1ccncc1Nc1nn(CCN2CCC(F)(F)C2)c2ccc(F)cc12` [Example 72, N-cyano-3-({1-[2-(3,3-difluoropyrrolidin-1yl)ethyl]-5-fluoro-1H-indazol-3-yl}amino)pyridine-4-carboxamide], the IC50 on Jarid1A and at Jarid1B was below 100 nM throughout.

Regarding `N#CNC(=O)c1ccncc1Nc1nn(CCN2CCC(F)(F)CC2)c2ccc(F)cc12` [Example 74, N-cyano-3-({1-[2-(4,4-difluoropiperidin-1yl)ethyl]-5-fluoro-1H-indazol-3-yl}amino)pyridine-4-carboxamide], the IC50 against Jarid1A and against Jarid1B was below 100 nM each time.

For `CC(C)Cn1nc(Nc2cnccc2C(=O)NC#N)c2cc(F)ccc21` [Example 75, N-cyano-3-{[5-fluoro-1-(2-methylpropyl)-1H-indazol-3-yl]amino}pyridine-4-carboxamide], the IC50 against Jarid1A and at Jarid1B was below 100 nM each time.

Regarding `CN(C)CCCCn1nc(Nc2cnccc2C(=O)NC#N)c2cc(F)ccc21` [Example 76, N-cyano-3-({1-[4-(dimethylamino)butyl]-5-fluoro-1H-indazol-3-yl}amino)pyridine-4-carboxamide], the IC50 on Jarid1A and at Jarid1B was below 100 nM throughout.

`N#CNC(=O)c1ccncc1Nc1nn(CCN2CCCC2)c2ccc(Cl)cc12` [Example 79, N-cyano-3-({5-chloro-1-[2-(pyrrolidin-1-yl)ethyl]-1H-indazol-3-yl}amino)pyridine-4-carboxamide]: the IC50 against Jarid1A and at Jarid1B was below 100 nM in each case.
